Broadly, the IC50 is the midpoint of a concentration-inhibition curve.

Experiment [1] in a line: Antiproliferative activity against human PANC1 cells after 96 hrs by WST-8 assay. It is filed as functional, cell-based. The conditions noted are these: PANC-1, 96 h. (In general: Formazan colour is commonly taken as a measure of viable cells.)
Experiment [2] deals with A549. Briefly: Antiproliferative activity against human A549 cells after 120 hrs by WST-8 assay. The note with it: A549, 120 h. It is filed as functional, cell-based.
Experiment [3] has as its system A549. Briefly: Ratio of (+)-Neopeltolide IC50 to compound IC50 for human A549 cells after 120 hrs by WST-8 assay. It is filed as functional.

In the case of `C/C=C\c1nc(CC/C=C\C(=O)O[C@H]2C[C@@H]3CC(=O)O[C@@H](CCC)C[C@@H](OC)C/C(C)=C\[C@H](C2)O3)co1`, the figures for the IC50 (in experiment [1]; in the experiment with A549 [2]) were 440 nM and 740 nM, respectively.

`CCC[C@H]1C[C@@H](OC)C/C(C)=C\[C@@H]2C[C@@H](OC(=O)/C=C\CCc3coc(/C=C\CNC(=O)OC)n3)C[C@H](CC(=O)O1)O2`: in the experiment on A549 [3], the “Ratio IC50” value amounted to 3. Further, the IC50 in experiment [1] worked out at 2.4 nM; in the experiment on A549 [2] it was 0.5 nM.

Take `CCC[C@H]1C[C@@H](OC)C/C(C)=C\[C@@H]2C[C@@H](OC(=O)CCCCc3coc(/C=C\CNC(=O)OC)n3)C[C@H](CC(=O)O1)O2`: the half-maximal inhibitory concentration (IC50) was 26 nM in experiment [1] and 110 nM in the experiment with A549 [2].

With `CCC[C@H]1C[C@@H](OC)C/C(C)=C\[C@@H]2C[C@@H](OC(=O)/C=C\CCc3coc(CCCNC(=O)OC)n3)C[C@H](CC(=O)O1)O2`, the IC50 came to 200 nM in experiment [1] and 400 nM in the experiment on A549 [2].

In the case of `CCC[C@H]1C[C@@H](OC)C/C(C)=C\[C@@H]2C[C@@H](OC(=O)CCCCc3coc(CCCNC(=O)OC)n3)C[C@H](CC(=O)O1)O2`, the IC50 in experiment [1] was 3200 nM; in the experiment on A549 [2], > 10000 nM.

With `CCC[C@H]1C[C@@H](OC)C/C(C)=C\[C@@H]2C[C@@H](OC(=O)/C(C)=C\CCc3coc(/C=C\CNC(=O)OC)n3)C[C@H](CC(=O)O1)O2`, the IC50 is 2.6 nM in experiment [1] and 2.5 nM with A549 [2].

Turning to `CCC[C@H]1C[C@@H](OC)C/C(C)=C\[C@@H]2C[C@@H](OC(=O)/C=C(/C)CCc3coc(/C=C\CNC(=O)OC)n3)C[C@H](CC(=O)O1)O2`, the IC50 in experiment [1] worked out at 6.4 nM; in the experiment on A549 [2], 6.3 nM.

Consider `CCC[C@H]1C[C@@H](OC)C/C(C)=C\[C@@H]2C[C@@H](OC(=O)c3ccccc3CCc3coc(/C=C\CNC(=O)OC)n3)C[C@H](CC(=O)O1)O2`, for which the values for the IC50 (in experiment [1]; in the experiment with A549 [2]) were 75 nM and 500 nM, respectively.

Consider `CCC[C@H]1C[C@@H](OC)C/C(C)=C\[C@@H]2C[C@@H](OC(=O)/C=C\CCc3coc(C=C(C)C)n3)C[C@H](CC(=O)O1)O2`, for which the values for the IC50 (in experiment [1]; with A549 [2]) were 2800 nM and 3900 nM, respectively.

The record behind these values is ChEMBL document CHEMBL3259583, “Synthesis and biological evaluation of (+)-neopeltolide analogues: importance of the oxazole-containing side chain” (Bioorg Med Chem Lett, 2014).
